Data on 1 compound can be found in patent US20060019907A1, “Guggulsterone: an inhibitor of nuclear factor - kappaB and IkappaBalpha kinase activation and uses thereof” (Research Development Foundation, priority 2004, published 2006).

The structures appear in SMILES notation.

One test has as its system COX2 promoter. Put plainly: COX-2 promoter-dependent reporter luciferase gene expression. It is filed as cell-based, human. Particulars: 0.1 nM TNF 24 hours. How it is done:
COX-2 Promoter-dependent Reporter Luciferase Gene Expression: COX-2 promoter activity was examined as described elsewhere (Shishodia et al., 2003). To further determine the effect of guggulsterone on COX-2 promoter, […] cells were seeded at a concentration of 1.5×10^5 cells per well in six-well plates. After overnight culture, the cells in each well were transfected with 2 μg DNA consisting of COX-2 promoter-luciferase reporter plasmid, along with 6 μl of LIPOFECTAMINETM 2000 (Life Technologies, Inc.) according to the manufacturer's protocol. The COX-2 promoter (-375 to +59), amplified from human genomic DNA by using the primers [NT] (sense) (SEQ ID NO:3) and [NT] (antisense) (SEQ ID NO:4), was provided by Dr. Xiao-Chun Xu (M.D. Anderson Cancer Center). After a 6 hour exposure to the transfection mixture, the cells were incubated in medium containing guggulsterone for 12 hours. The cells were exposed to TNF (0.1 nM) for 24 hours and then harvested. Luciferase activity is measured by using the Promega luciferase assay system according to the manufacturer's protocol and detected by using […] 2010 (Analytical Luminescence Laboratory, San Diego, Calif.).

The test system of the next test is p65. Put plainly: TNF-induced phosphorylation and nuclear translocation of p65. The following applies: H1299, 50 μM, 4 hours, 0.1 nM TNF. It is filed as cell-based, human. How it is done: (§1) Western Blot Analysis: To determine the effect of guggulsterone on TNF-dependent IκBα phosphorylation, IκBα degradation, p65 translocation and p65 phosphorylation, cytoplasmic extracts were prepared as previously described (Majumdar et al., 2001) from H1299 (2×10^6/ml) pretreated with 50 μM guggulsterone for 4 h and then exposed to 0.1 nM TNF for various times. Thirty micrograms of cytoplasmic protein was resolved on 10% SDS-PAGE gel, transferred to a nitrocellulose membrane, blocked with 5% non-fat milk, and probed with specific antibody against IκBα, posphorylated IκBα, p65 and phosphorylated p65. To determine the expression of cyclin D1, COX-2, MMP-9, clAP-1, xlAP, TRAF1, Bcl-2, Bfl-1, cFLIP, and survivin, whole-cell extracts were prepared from treated cells (2×10^6 cells in 2 ml medium), 30-50 μg protein was resolved on SDS-PAGE gel and probed by Western blot with specific antibodies as per manufacturer's recommended protocol. The blots were washed, exposed to HRP-conjugated secondary antibodies for 1 hour, and finally detected by ECL reagent (Amersham Pharmacia Biotech.). The bands were quantitated using a Personal Densitometer Scan v1.30 using IMAGEQUANT™ software version 3.3 (Molecular Dynamics).
Immunolocalization of NF-κB p65: The effect of guggulsterone on […] nuclear translocation of p65 was examined using an immunocytochemical method as described previously (Bharti et al., 2003). Stained slides were mounted with mounting medium (Sigma Chemical) and analyzed under an epifluorescence microscope (Labophot-2; Nikon, Tokyo, Japan). Images were captured using a PHOTOMETRICS COOLSNAP CF™ color camera (Nikon, Lewisville, Tex.) and METAMORPH™ version 4.6.5 software (Universal Imaging, Downingtown, Pa.).

The target of a further test is T1, NF-κB proteins (Homo sapiens, UniProt P19838+Q04206).
T1 construct: endogenous in cells; nuclear extract
T1 sequence (Q04206 whole entry): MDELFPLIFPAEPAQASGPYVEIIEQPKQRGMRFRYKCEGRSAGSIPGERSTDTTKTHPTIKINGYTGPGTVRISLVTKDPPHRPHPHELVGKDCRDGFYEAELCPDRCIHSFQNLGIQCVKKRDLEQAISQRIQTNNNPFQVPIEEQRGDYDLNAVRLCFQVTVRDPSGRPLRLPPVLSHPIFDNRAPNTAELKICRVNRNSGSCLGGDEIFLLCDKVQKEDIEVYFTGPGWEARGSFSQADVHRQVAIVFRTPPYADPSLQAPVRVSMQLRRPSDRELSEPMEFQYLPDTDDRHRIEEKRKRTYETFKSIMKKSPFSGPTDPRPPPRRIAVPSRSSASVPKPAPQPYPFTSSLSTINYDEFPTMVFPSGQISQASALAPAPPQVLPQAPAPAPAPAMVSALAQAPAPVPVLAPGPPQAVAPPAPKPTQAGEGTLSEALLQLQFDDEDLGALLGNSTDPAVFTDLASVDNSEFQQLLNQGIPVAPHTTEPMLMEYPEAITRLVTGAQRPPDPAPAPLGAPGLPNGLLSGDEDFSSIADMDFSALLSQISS
T1 sequence (P19838 1-433 limits assumed): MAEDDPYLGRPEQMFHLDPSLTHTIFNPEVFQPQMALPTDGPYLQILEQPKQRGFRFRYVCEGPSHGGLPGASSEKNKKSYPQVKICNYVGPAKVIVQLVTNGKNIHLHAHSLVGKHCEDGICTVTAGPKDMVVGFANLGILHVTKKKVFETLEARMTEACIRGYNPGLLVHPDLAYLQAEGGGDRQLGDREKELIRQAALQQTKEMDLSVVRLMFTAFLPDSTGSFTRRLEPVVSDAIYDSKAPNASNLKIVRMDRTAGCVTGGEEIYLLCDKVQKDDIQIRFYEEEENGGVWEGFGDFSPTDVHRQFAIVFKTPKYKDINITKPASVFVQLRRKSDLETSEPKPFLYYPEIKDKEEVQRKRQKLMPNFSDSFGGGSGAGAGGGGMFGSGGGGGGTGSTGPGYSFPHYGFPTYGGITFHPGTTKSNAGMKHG
Put plainly: DNA binding of NF-κB in nuclear extracts incubated with guggulsterone (EMSA). In kind it is biochemical. Particulars: nuclear extracts from TNF-activated H1299 cells treated with guggulsterone 4 hours at room temperature. How it is done: NF-κB Activation: To determine NF-κB activation, EMSA was carried out as previously described (Chaturvedi et al., 2000). Briefly, nuclear extracts prepared from cells (2×10^6/ml) treated with TNF were incubated with ^32P-end-labeled 45-mer double-stranded NF-κB oligonucleotide (8 μg of protein with […] of DNA) from the human immunodeficiency virus long terminal repeat, 5′-[…] GGCGTGG-3′ (SEQ ID NO:1) (boldface indicates NF-κB binding sites), for 15 min at 37° C. The DNA-protein complex formed was separated from free oligonucleotide on 6.6% native polyacrylamide gels. A double-stranded mutated oligonucleotide, 5′-[…]-3′ (SEQ ID NO:2), was used to examine the specificity of binding of NF-κB to the DNA. The specificity of binding was also examined by competition with the unlabeled oligonucleotide. For supershift assays, nuclear extracts prepared from TNF-treated cells were incubated with antibodies against either the p50 or the p65 subunit of NF-κB for 30 min at room temperature before the complex was analyzed by EMSA. The dried gels were visualized, and radioactive bands were quantitated using a PHOSPHORIMAGER™ (Molecular Dynamics, Sunnyvale, Calif.) using IMAGEQUANT™ software. […]
Background: Mobility shift assays separate free from complexed probe on a gel.

Another test concerns IKK. Nature of the test: RANKL-induced IKK activity, IKK assay. It is filed as cell-based, mouse. The following applies: RAW 264.7.
A further test has as its system IκBα. Nature of the test: TNF-dependent IκBα degradation and phosphorylation, Western blot. It is filed as cell-based, human. The following applies: H1299; 50 μM, 4 hours, 0.1 nM TNF. How it is done: as §1
For another test, the system named is tumor cells. Put plainly: Antiproliferative effects against tumor cells (MTT). In kind it is cell-based, human. How it is done: Cytotoxicity Assay: Cytotoxicity was assayed by the modified tetrazolium salt 3-(4-5-dimethylthiozol-2-yl)2-5-diphenyl-tetrazolium bromide (MTT) assay (Bharti et al., 2003). […] Thereafter, 0.025 ml of MTT solution (5 mg/ml in PBS) was added to each well. After a 2 hour incubation at 37° C., 0.1 ml of the extraction buffer (20% SDS, 50% dimethylformamide) was added. After an overnight incubation at 37° C., the optical densities at 570 nm were measured using a 96-well multiscanner autoreader (Dynatech MR5000), with the extraction buffer as blank. The percent cytotoxicity was determined as follows: (1−(A570 of test sample)/(A570 of control sample)×100%.
Cytotoxicity assay. The cytotoxic effects of guggulsterone was determined by the MTT uptake method. Briefly, 5000 cells were incubated with guggulsterone in triplicate in a 96-well plate at 37° C. MTT solution was then added to each well. After a 2-h incubation at 37° C., extraction buffer (20% SDS, 50% dimethylformamide) was added, the cells were incubated overnight at 37° C., and the OD was then measured at 570 nm using a 96-well multiscanner (Dynex Technologies, MRX Revelation, Chantilly, Va.).

On to `CC=C1C(=O)C[C@H]2[C@@H]3CCC4=CC(=O)CC[C@]4(C)[C@H]3CC[C@]12C` [guggulsterone, 4,17(20)-pregnadiene-3,16-dione], for which the “TNF-induced COX2 promoter activity” value in the test on COX2 promoter is “abolished the COX2 promoter activity in a dose-dependent manner”. Besides, in the test on p65, the “TNF-induced nuclear translocation of p65, Western blot” value was “abolished the TNF-induced nuclear translocation of p65” and the “TNF-induced nuclear translocation of p65, immunocytochemistry” value is reported as “abrogated the p65 translocation”. In addition, in the test on p65 (Western blot), the “TNF-induced phosphorylation of p65” value is listed as “suppressed p65 phosphorylation almost completely”. Besides, the “DNA-binding ability of NF-κB proteins” value at NF-κB proteins is recorded as “did not modify the DNA-binding ability of NF-κB proteins”. Besides, in the test on IKK (50 μM, 4 h pre-incubation, 10 nM RANKL), the “RANKL-induced IKK activity (phosphorylation of GST-IκBα)” value is “could not phosphorylate GST-IκBα upon RANKL treatment”. Further, the “expression of IKK-α and IKK-β” value in the test on IKK (Western blot) was “did not alter the expression of IKK-α and IKK-β”. Also, in the test on IκBα, the “TNF-induced IκBα degradation” value was “TNF had no effect on IκBα degradation” and the “TNF-induced IκBα phosphorylation” value is “almost completely suppressed IκBα phosphorylation”. Further, the “proliferation of head and neck, lung, melanoma, multiple myeloma, leukemia and breast cancer cells” value in the test on tumor cells (2000 cells in 0.1 ml, six days, MTT) was “suppressed the proliferation of a wide variety of cells”. For the same compound, the “proliferation of human leukemia, head and neck carcinoma, multiple myeloma, lung carcinoma, melanoma, breast carcinoma and ovarian cancer cell lines” value with tumor cells (Example 2) is reported as “inhibits the proliferation”. Also, the “proliferation of drug resistant cancer cells” value in the test on tumor cells (STI-resistant K562, dexamethasone resistant MM1, doxorubicin resistant breast cancer cell lines) was “inhibited the proliferation of drug resistant cancer cells”.
